Experiment [1] deals with S. symbiotica CWBI-2.3. Kind of experiment: microbe, parasite or virus in culture. In kind it is cell-based, Serratia symbiotica. To be noted: broth microdilution (CLSI), 96-well polypropylene plates, 535 medium (Tripticase soy broth), 5 × 10^5 CFU/mL, 18 h, absorbance at 600 nm, two-fold dilutions 500 to 4 µg/mL, lowest concentration causing complete growth inhibition. As to the method: S. symbiotica strain CWBI-2.3, the only aphid symbiotic bacterium that can be cultivated in the laboratory, was purchased from the Leibniz Institute DSMZ (Braunschweig, Germany) and cultivated as recommended by the supplier. MICs were determined according to the CLSI guidelines using a broth microdilution assay in 96-well polypropylene microtiter plates. The bacteria were cultivated overnight at 28 °C using 535 medium (Tripticase soy broth) and diluted to 5 × 10^5 CFU/mL in broth. The AMPs were dissolved in water to a concentration of 4 mg/mL and a series of two-fold dilutions was prepared in 535 broths, ranging from 500 to 4 µg/mL. S. symbiotica CWBI-2.3 in an unmodified medium was used as a positive control, and blanks were prepared with medium only or with medium and water (the latter to exclude any possible negative effect of water on the bacteria). The bacteria were incubated for 18 h and the absorbance at 600 nm was recorded every 20 min. The MICs were defined as the lowest concentrations of AMP causing complete bacterial growth inhibition.
(Dilution methods test growth across graded concentrations, often in twofold steps.)

In experiment [2] the test system is B. aphidicola. Kind of experiment: FISH localization of symbiont in treated aphid nymphs. It is filed as in vivo, Buchnera aphidicola in Acyrthosiphon pisum. To be noted: highest concentration of each AMP, control treatments. As to the method:
(§1) FISH was carried out as previously described, with slight modifications. Treated A. pisum nymphs were fixed for three days in Carnoy’s solution (6:3:1 […]:glacial acetic acid) and then bleached in 6% H2O2 in 96% ethanol for 1 week. After bleaching, samples were washed in 100% ethanol and then hybridized overnight in hybridization buffer (20 mM Tris-HCl pH 8.0, 0.9 M NaCl, 0.01% sodium dodecylsulfate, 30% formamide) containing 100 nM of each fluorescent probe and 500 nM DAPI. After hybridization, samples were rinsed three times with phosphate buffered saline containing 0.3% Triton X-100 and viewed under a Leica TCS SP8 confocal microscope (Leica Microsystems, Wetzlar, Germany). We analysed a minimum of 20 samples from each treatment. The specificity of detection was confirmed using controls with no probe and specimens were pre-treated with RNase.

In experiment [3] the test system is A. pisum. It is filed as in vivo, Acyrthosiphon pisum. To be noted: for % Survival: after three days of feeding, 48 h old nymphs, ten per chamber, five replicates, control AP3 diet survival = 90%; for Kaplan-Meier analysis: Mean, Estimate (survival time): three days of feeding, control 2.880, estimation limited to the largest survival time if censored. How it is done: (§2) A. pisum nymphs (48 h old) were fed for three days on an artificial AP3 diet in modified chambers. The AP3 diet was mixed with the corresponding AMP or control treatment. Ten nymphs were placed in each chamber and five replicates were included per treatment. AMPs were tested at three different concentrations: 50, 250, and 500 µg/mL. Untreated aphids were fed on the control AP3 diet. Positive control treatments comprised aphids fed on the AP3 diet supplemented with the insecticide imidacloprid (5 µg/mL) or the antibiotic rifampicin (50 µg/mL) (Sigma-Aldrich, Taufkirchen, Germany). Imidacloprid is strongly hydrophobic, and was therefore prepared first as a highly concentrated stock (1000 µg/mL) in acetone and working solutions were diluted in the AP3 diet. The corresponding control (AP3 + acetone) was tested on the aphids, and survival was not affected when compared to AP3 diet alone or AP3 diet diluted with water (data not shown). Mortality was scored after 24, 48, and 72 h of feeding. Aphids that survived the three-day treatment were transferred to agar plates containing bean plant leaves and reared for another two weeks in order to determine the impact of the diets on survival and reproduction.
All data were analysed using SPSS v17.0 software (SPSS Inc., Chicago, IL, USA) and statistical significance was defined as p < 0.05. For mortality assessment, we used non-parametric survival analysis (Kaplan-Meier) and multiple pairwise comparisons among different groups were carried out using log-rank tests to assess efficiency. The total number of offspring, time to reproduction, and relative numbers of bacterial symbionts were analysed using the Wilcoxon ranked sum test for non-parametric data and a paired t-test for parametric data.

Experiment [4] relates to S. symbiotica. The experiment is described as follows: FISH localization of symbiont in treated aphid nymphs. In kind it is in vivo, Serratia symbiotica in Acyrthosiphon pisum. How it is done: as §1
Experiment [5] concerns green peach aphid Myzus persicae (Sulzer). Set-up: method as in doi:10.1111/j.1439-0418.2006.01117.x. To be noted: cited from earlier work.
Experiment [6] deals with Escherichia coli. To be noted: cited from earlier work.
For experiment [7], the system named is B. aphidicola. Kind of experiment: qPCR relative quantification of symbiont in treated aphids. It is filed as in vivo, Buchnera aphidicola in Acyrthosiphon pisum. To be noted: 50 µg/mL. As to the method: (§3) The density of the B. aphidicola and S. symbiotica populations in vivo was determined by qPCR. Genomic DNA was extracted from pools of five aphids, as previously described. Three biological replicates were prepared per treatment. Amplifications were carried out using a StepOnePlus™ Real-Time PCR System (Applied Biosystems, Waltham, MA, USA). The reaction volume was 10 μL, comprising 2 μL of template DNA (25 ng/μL), 10 μM of each specific primer and 5 μL of SYBR Green PCR Master Mix (Applied Biosystems). Each reaction was heated to 95 °C for 10 min, followed by 40 cycles of 95 °C for 15 s and 60 °C for 60 s. Melting curve analysis was performed by increasing the temperature from 60 °C to 95 °C for 15 s, cooling to 60 °C for 60 s and heating to 95 °C for 15 s. […] Relative abundance values for each symbiont were calculated by comparing the threshold cycle (Ct) of each target gene to that of the aphid ribosomal protein L32 gene and efficiencies were calculated using LinReg PCR software.
(§4) All data were analysed using SPSS v17.0 software (SPSS Inc., Chicago, IL, USA) and statistical significance was defined as p < 0.05. […] The total number of offspring, time to reproduction, and relative numbers of bacterial symbionts were analysed using the Wilcoxon ranked sum test for non-parametric data and a paired t-test for parametric data.
Background: Quantitative PCR measures a nucleic acid by following its amplification.

Experiment [8] relates to S. symbiotica. Described as above. It is filed as in vivo, Serratia symbiotica in Acyrthosiphon pisum. To be noted: 50 µg/mL. How it is done: as §3, §4
In experiment [9] the test system is A. pisum. The experiment is described as follows: Aphid reproduction after AMP feeding (time to reproduction, number of offspring). It is filed as in vivo, Acyrthosiphon pisum. To be noted: 50 µg/mL for three days; surviving aphids followed two weeks. As to the method:
The effect of each AMP on A. pisum reproduction was determined by counting the number of offspring and recording the delay before reproduction in surviving aphids for two weeks after treatment (Figure 2).
as §2, with “The corresponding control (AP3 + acetone) was tested on the aphids, and survival was not affected when compared to AP3 diet alone or AP3 diet diluted with water (data not shown).” left out, “Aphids that survived the three-day treatment were transferred to agar plates containing bean plant leaves and reared for another two weeks in order to determine the impact of the diets on survival and reproduction.” left out
as §4

Where [10] appears, read: after three days of treatment, compared to control AP3 diet, pools of five aphids, three biological replicates.
Setting [11] is: two weeks after treatment, data not shown.

Values after ≈ are worked out from the molar mass of the structure shown. Where two headings read alike, the source gives them in different places. No end group written: not given here. Where only a bound is given, the exact number is not on record here.

Consider GFWGKLWEGVKNAI-NH2 [UyCT1], for which the “MIC (In Vitro)” value in [1] is 125 µg/mL.
Still for that read-out and setting: to FPFLLSLIPSAISAIKRL-NH2 [Uy234] belongs >500 µg/mL.
With `O=[N+]([O-])NC1=NCCN1Cc1ccc(Cl)nc1` [Imidacloprid], in experiment [2] (48 h after treatment), the “localization of the B. aphidicola FISH signal” value is listed as “did not affect the localization of the bacterial symbionts”. Also, the “% Survival” value in experiment [3] (5 µg/mL in AP3 diet) came to 0%. In addition, the “Kaplan-Meier analysis: Mean, Estimate (survival time)” value in experiment [3] (5 µg/mL) is 1.960. Also, the “localization of the S. symbiotica FISH signal” value in experiment [4] (24 and 48 h after exposure, control treatment) is listed as “did not affect the localization of the bacterial symbionts”.
Regarding FPFLKLSLKIPKSAIKSAIKRL-NH2 [D10], in experiment [1], the “MIC (In Vitro)” value is on record as >500 µg/mL.
Still for that read-out and setting: then GFWGKLWEGVKNAIKKK-NH2 [D11], with >500 µg/mL; and ILSAIWSGIKSLF-NH2 [UyCT3], with 125 µg/mL.
As to “indolicidin: an AMP from bovine neutrophils (ILPWKWPWWPWRR; ends and bridges not checked; UniProt P33046 131-143, looked up)”, the “activity against Myzus persicae” value in experiment [5] was “showed activity”. The “activity against Escherichia coli” value in experiment [6] was “showed activity”.
With LWGKLWEGVKSLI-NH2 [D3], the “MIC (In Vitro)” value in experiment [1] was 250 µg/mL.
On the same count and under the same terms, to ILSAIWSGIKGLL-NH2 [Uy17] belongs 250 µg/mL; to GNRPVYIPPPRPPHPRL-NH2 [Apidaecin], >500 µg/mL; to FLSTIWNGIKGLL-NH2 [Uy192], 500 µg/mL.
On to IWSAIWSGIKGLL-NH2 [UyCT5], for which the “nymphs killed after the first day” value in experiment [3] (in vivo, 48 h, 500 µg/mL) amounted to 10%. Moreover, the “MIC (In Vitro)” value in [1] was determined as 125 µg/mL.
Consider GFWGKLLEGVKKAI-NH2 [D5], for which, in experiment [1], the “MIC (In Vitro)” value came out at 500 µg/mL.
Consider FFSALLSGIKSLF-NH2 [Um4], for which the “MIC (In Vitro)” value in [1] was >500 µg/mL.
As for `CO[C@H]1/C=C/O[C@@]2(C)Oc3c(C)c(O)c4c(O)c(c(/C=N/N5CCN(C)CC5)c(O)c4c3C2=O)NC(=O)/C(C)=C\C=C\[C@H](C)[C@H](O)[C@@H](C)[C@@H](O)[C@@H](C)[C@H](OC(C)=O)[C@@H]1C` [Rifampicin], in [7] (setting [10]), the “density of B. aphidicola (qPCR, relative abundance)” value is reported as “significant reduction”. Moreover, the “density of B. aphidicola (qPCR)” value in experiment [7] (setting [11]) was “significant reduction”. Further, the “density of S. symbiotica (qPCR, relative abundance)” value in experiment [8] (setting [10]) was “significant reduction”. Moreover, the “density of S. symbiotica (qPCR)” value in [8] (setting [11]) is recorded as “significant reduction”. The number of offspring entry in experiment [9] is “hardly any offspring”. The “intensity of the B. aphidicola FISH signal” value in experiment [2] (aphid nymphs, 24 and 48 h after exposure) was “neither the AMPs nor rifampicin reduced the intensity of the signal”. Also, the “survival during the two weeks after treatment” value in experiment [3] (50 µg/mL for three days, survivors monitored for the following two weeks on bean leaves, data not shown) is “did not affect aphid survival”. The “% Survival” value in experiment [3] (50 µg/mL in AP3 diet) was found to be 92.5%. In addition, the “Kaplan-Meier analysis: Mean, Estimate (survival time)” value in experiment [3] (50 µg/mL) is reported as 2.925. In experiment [1] (Serratia symbiotica, CWBI2.3, read-out: MIC (In Vitro)), the MIC was 50 µg/mL (≈ 60.8 µM). Besides, the “S. symbiotica FISH signal” value in experiment [4] (48 h after exposure, highest concentration of each AMP, control treatments, minimum of 20 samples per treatment) is recorded as “reduced the S. symbiotica signal”.
In the case of “RGFRKHFNKLVKKVKHTISETAHVAKDTAVIAGSGAAVVAAT-NH2 [Stomoxyn]”, the “MIC (In Vitro)” value in [1] is >500 µg/mL.

The values above are taken from publication PMC5618194, “Orally Delivered Scorpion Antimicrobial Peptides Exhibit Activity against Pea Aphid (Acyrthosiphon pisum) and Its Bacterial Symbionts” (Toxins, 2017).
